In patent publication US20150034084A1, “[…] NITRIC OXIDE FOR TREATING RESPIRATORY DISEASES” (Advanced Inhalation Therapies (AIT) Ltd., priority 2012, published 2015):

Columns and labels:
Acinetobacter sp. = settings: 200 ppm gNO, saline; cited from earlier work
[1] = system: highly pathogenic Avian Influenza H7N3; settings: cited from earlier work
[2] = system: influenza A/victoria/H3N2; settings: 160 ppm gNO, cited from earlier work
[3] = Phase I safety study: inspiratory NO2 level during gNO delivery; design: species or system human; settings: inspired gas at mouthpiece
Protocol: Subjects were administered gNO through a modified disposable mouthpiece to maximize mixing. Inspiration was spontaneously initiated by the subject from a conventional intermittent positive pressure breathing respirator (Mark-7, Carefusion, USA) in fixed flow mode delivering 48 liters per minute (LPM). Flows of gas were verified with a calibrated mass flow meter (TSI, USA). Gaseous nitric oxide (gNO, obtained at INOmax, Ikaria, USA) at a concentration of 800 ppm delivered at a flow of 12 LPM was titrated into a distal delivery port on the mouth piece connected to the respirator during inspiratory phase only (pressure switch). The Mark 7 respirator was supplied by an air/oxygen blender (Bird Sentry, Carefusion, USA) set to deliver 26% oxygen.
The levels of gNO, NO2, O2 and methemoglobin were monitored during the administration of gNO. The target gas mixture was 160 ppm gNO with a nitrogen dioxide (NO2) level of less than 5 ppm and an oxygen (O2) level ranging from 21% to 25%. Inspiratory NO, NO2 and O2 levels were continuously monitored by sampling from the mouthpiece sample port located about 6 millimeters from the mouth of the subject with an AeroNOx (Pulmonox, AB, Canada) NO, NO2 and O2 electrochemical analyzer. Delivery safety was determined by the number of occasions that NO2 exceeded 5 ppm, gNO exceeding 10% variation and O2 dropping below 20% during gNO administration. […]

Enterobacter sp. = settings: 200 ppm gNO, saline; cited from earlier work
[4] = system: all microorganisms tested; settings: 200 ppm gNO, cited from earlier work
P. aeruginosa = settings: cited from earlier work
[5] = system: bovine respiratory disease; settings: intermittent 30 minute exposures of gNO, cattle; cited from earlier work
[6] = in vivo; cited from earlier work
S. aureus (ATCC) = settings: 200 ppm gNO, saline; cited from earlier work
inflammatory cytokines = test: Phase I safety study: plasma cytokines by cytometric bead array; type: in vivo, human; settings: 160 ppm gNO inhalation
Protocol: (§1) After obtaining informed consent, treatment was initiated within 5 days of enrollment. Subjects were housed in a hospital ward and received 160 ppm gNO for 30 minutes every four hours (Q4h), five times a day, for five consecutive days by inhalation. Subjects returned for follow-up evaluations 3, 7 and 21 days after the final gNO administration. Subject safety was determined by monitoring vital signs, methemoglobin levels, lung function, blood chemistry, hematology, prothrombin time, inflammatory cytokine/chemokines levels and endothelial activation. These parameters were compared to baseline and at various time-points during and after gNO administration.
(§2) Hematological assessment included a complete blood count and differentials (hemoglobin, hematocrit, red blood cell count, white blood cell count, white blood cell differential, and platelet count) were obtained in order to monitor blood chemistry, hematology and inflammation measurements. The blood chemistry profile included serum creatinine, and liver function tests such as aspartate aminotransferase (AST) serum glutamic oxaloacetic transaminase (SGOT), alkaline phosphatase, and gamma-glutamyl transferase (GGT). The effect of gNO on coagulation was determined by the prothrombin time (PT) and its derived measures of prothrombin ratio (PR) and international normalized ratio (INR). Heparinized plasma was collected at baseline and on days 1, 2, 4, and 5 of gNO administration, and on follow-up days 3, 7 and 21 and frozen at −80° C. Plasma cytokine levels were assessed using the human inflammation cytokine bead array kit (BD Bioscience, Canada). Plasma levels of angiopoietin Ang-1 and Ang-2 were determined by ELISA (R&D Systems, USA).
To assess whether gNO inhalation may cause inflammation or endothelial activation cytokines and the vascular endothelium activation factors Ang-1 and Ang-2 were quantified in peripheral plasma at baseline at various time points thereafter.

[7] = Phase I safety study: hematology, clinical chemistry, coagulation; type: in vivo, human
Protocol: as §1, §2

SMILES: [N]=O [gNO, nitric oxide]
- LD100 (Acinetobacter sp.): 6 h
- Latent Period (Acinetobacter sp.): 4 h
- −2.5 Log10 (Acinetobacter sp.): 5 hours
- infectivity [1]: reducing the infectivity
- infectivity ([2]; MDCK plaque assay, A/Victoria/H3N2): reducing the infectivity
- anti-viral effect, intermittent versus single exposure ([2]; one 30 minute dose vs three 30 minute treatments Q4h): more evident in the intermittent form of exposure
- highest NO2 level recorded during the treatments ([3]; 160 ppm gNO): 2.8 ppm
- mean NO2 level ([3]; 95% confidence level 2.17-2.47 ppm): 2.32 ppm
- LD100 (Enterobacter sp.): 6 h
- Latent Period (Enterobacter sp.): 4 h
- −2.5 Log10 (Enterobacter sp.): 5.3 hours
- bactericidal effect [4]: complete bactericidal effect on all microorganisms tested
- reduction in CFU/mL ([4]; every bacteria challenged): ≥ 3 log10
- survival (downward bactericidal trend towards) (P. aeruginosa; 50-160 ppm gNO, solid media, vs medical air): 5-10%
- reduction of colony formation (P. aeruginosa; gNO greater than 120 ppm, agar plates): greater than 90%
- time required to achieve the >90% reduction of colony formation (P. aeruginosa; gNO greater than 120 ppm): 8 to 12 h
- clinical symptoms of bovine respiratory disease [5]: decrease the clinical symptoms
- half-life in the body [6]: less than 6 seconds
- nitrate excreted in the urine, share of the nitric oxide dose inhaled [6]: more than 70%
- LD100 (S. aureus (ATCC)): 4 h
- Latent Period (S. aureus (ATCC)): 3 h
- −2.5 Log10 (S. aureus (ATCC)): 3.3 hours
- plasma IL-1b level versus baseline (inflammatory cytokines): unaffected
- plasma IL-6 level versus baseline (inflammatory cytokines): unaffected
- plasma IL-8 level versus baseline (inflammatory cytokines): unaffected
- plasma IL-10 level versus baseline (inflammatory cytokines): unaffected
- plasma IL-12p70 level versus baseline (inflammatory cytokines): unaffected
- plasma TNF level versus baseline (inflammatory cytokines): unaffected
- eosinophil cell numbers, end of study ([7]; baseline 0.15 giga/L, p=0.104): 0.19 giga/L
- blood coagulation parameters, clinical chemistry and hematological parameters ([7]; baseline to completion of day 5): no statistically, nor clinically significant changes
- neutrophil cell numbers, end of study ([7]; baseline value of zero, p=0.169): 0.01 giga/L
